Measurements: ChEMBL document CHEMBL1201862, “PubChem BioAssay data set” (2004)
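These data come from cells grown in 96-well plates and exposed to compound for 48 hours at five concentrations. GI50 is the concentration that inhibits growth by half.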 Activity calls are given as the source filed them. Cut-off read from the data, not from the text of the source: active = GI50 up to about 1.1 µM and inactive = higher.

Tests used:
Experiment in all cases: NCI-60 cell line screen, 48 h
SK-MEL-2 = system: SK-MEL-2
NCI/ADR-RES = system: NCI/ADR-RES
KM12 = system: KM12
SK-MEL-28 = system: SK-MEL-28
MDA-MB-435 = system: MDA-MB-435
786-0 = system: 786-0
HCT-15 = system: HCT-15
K562 = system: K562
Hs-578T = system: Hs-578T
TK-10 = system: TK-10
EKVX = system: EKVX
MOLT-4 = system: MOLT-4
OVCAR-8 = system: OVCAR-8
UO-31 = system: UO-31
ACHN = system: ACHN
UACC-257 = system: UACC-257
CAKI-1 = system: CAKI-1
MDA-N = system: MDA-N
DU-145 = system: DU-145
HL-60 = system: HL-60

SMILES | GI50 (SK-MEL-2) | GI50 (NCI/ADR-RES) | GI50 (KM12) | GI50 (SK-MEL-28) | GI50 (MDA-MB-435) | GI50 (786-0) | GI50 (HCT-15) [µM] | GI50 (K562) | GI50 (Hs-578T) | GI50 (TK-10) | GI50 (EKVX) | GI50 (MOLT-4) | GI50 (OVCAR-8) | GI50 (UO-31) | GI50 (ACHN) | GI50 (UACC-257) | GI50 (CAKI-1) | GI50 (MDA-N) | GI50 (DU-145) | GI50 (HL-60)
Cc1cc2c(nn1)CCc1c-2no[n+]1[O-] | 50.1 µM (inactive) | > 100 µM (inactive) | > 100 µM (inactive) | > 100 µM (inactive) | > 100 µM (inactive) | > 100 µM (inactive) | > 100 | > 100 µM (inactive) | > 100 µM (inactive) | > 100 µM (inactive) | > 100 µM (inactive) | > 100 µM (inactive) | > 100 µM (inactive) | > 100 µM (inactive) | > 100 µM (inactive) | > 100 µM (inactive) | > 100 µM (inactive) | > 100 µM (inactive) | – | –
Cc1ccc(S(=O)(=O)ON2C(=O)c3cccc4cc([N+](=O)[O-])cc(c34)C2=O)cc1 | 84.5 µM (inactive) | > 100 µM (inactive) | 32.6 µM (inactive) | > 100 µM (inactive) | 40.3 µM (inactive) | 47.5 µM (inactive) | 71 | – | 68.1 µM (inactive) | 42.9 µM (inactive) | > 100 µM (inactive) | 28.6 µM (inactive) | > 100 µM (inactive) | 42.1 µM (inactive) | 62.1 µM (inactive) | 66.2 µM (inactive) | 55.8 µM (inactive) | – | 89.1 µM (inactive) | –
N#CC(C(=O)CCC(=O)Nc1cccc(C(F)(F)F)c1)c1ccccc1 (stereo not given) | > 100 µM (inactive) | – | > 100 µM (inactive) | > 100 µM (inactive) | – | > 100 µM (inactive) | > 100 | > 100 µM (inactive) | – | > 100 µM (inactive) | > 100 µM (inactive) | > 100 µM (inactive) | > 100 µM (inactive) | > 100 µM (inactive) | > 100 µM (inactive) | > 100 µM (inactive) | > 100 µM (inactive) | – | – | > 100 µM (inactive)
COc1cccc2c1CCc1c(-c3ccc(F)cc3)cc(-c3ccc4ccccc4n3)nc1-2 | > 100 µM (inactive) | > 100 µM (inactive) | > 100 µM (inactive) | – | > 100 µM (inactive) | > 100 µM (inactive) | > 100 | > 100 µM (inactive) | > 100 µM (inactive) | > 100 µM (inactive) | > 100 µM (inactive) | > 100 µM (inactive) | > 100 µM (inactive) | > 100 µM (inactive) | > 100 µM (inactive) | > 100 µM (inactive) | > 100 µM (inactive) | > 100 µM (inactive) | – | –
CN(C)CCNC(=O)c1cccc2nc3ccc4cccnc4c3nc12 | 0.895 µM (active) | – | 0.564 µM (active) | 0.944 µM (active) | – | 0.454 µM (active) | 0.209 | 0.346 µM (active) | – | 0.107 µM (active) | 0.507 µM (active) | 0.0441 µM (active) | 0.194 µM (active) | 0.205 µM (active) | 0.126 µM (active) | 0.447 µM (active) | 0.224 µM (active) | – | – | 0.348 µM (active)
CSc1nc2c(ncn2C2OCC(O)C(O)C2O)c(=O)[nH]1 (stereo not given) | > 100 µM (inactive) | > 100 µM (inactive) | > 100 µM (inactive) | > 100 µM (inactive) | – | – | > 100 | > 100 µM (inactive) | – | – | > 100 µM (inactive) | > 100 µM (inactive) | > 100 µM (inactive) | > 100 µM (inactive) | – | > 100 µM (inactive) | – | – | – | > 100 µM (inactive)
O=c1[nH]c(=O)n(C2OC3COC2C3O)cc1F (stereo not given) | > 100 µM (inactive) | – | > 100 µM (inactive) | > 100 µM (inactive) | – | > 100 µM (inactive) | > 100 | > 100 µM (inactive) | – | > 100 µM (inactive) | > 100 µM (inactive) | > 100 µM (inactive) | > 100 µM (inactive) | > 100 µM (inactive) | > 100 µM (inactive) | > 100 µM (inactive) | > 100 µM (inactive) | – | – | > 100 µM (inactive)
c1ccc(C2=NOC3C4CCC(C4)C23)cc1 (stereo not given) | > 100 µM (inactive) | – | > 100 µM (inactive) | > 100 µM (inactive) | – | > 100 µM (inactive) | > 100 | > 100 µM (inactive) | – | > 100 µM (inactive) | > 100 µM (inactive) | > 100 µM (inactive) | > 100 µM (inactive) | > 100 µM (inactive) | > 100 µM (inactive) | > 100 µM (inactive) | < 0.01 µM (active) | – | – | > 100 µM (inactive)
O=c1c2c(nc3[nH]ccn13)CCCC2 | > 10 µM (inactive) | > 10 µM (inactive) | > 10 µM (inactive) | > 10 µM (inactive) | > 10 µM (inactive) | – | > 10 | – | 1.23 µM (inactive) | > 10 µM (inactive) | > 10 µM (inactive) | > 10 µM (inactive) | > 10 µM (inactive) | > 10 µM (inactive) | > 10 µM (inactive) | – | > 10 µM (inactive) | – | > 10 µM (inactive) | > 10 µM (inactive)
